In patent US20090081721A1, “HIGH-THROUGHPUT CELL ASSAYS” (The Regents of the University of California, priority 2007, published 2009):
Converted amounts (≈) assume the structure as drawn. Read-outs that look alike come from different tables or passages of the source.

What was measured:
P. mirabilis [1] = test: Minimum inhibitory concentration (traditional susceptibility testing); format: cell-based; conditions: Proteus mirabilis
Protocol: (§1) Minimum inhibitory concentrations are determined by inoculating several cultures of bacteria in separate tubes or wells of broth that typically contain a 2-fold serial dilution of an antimicrobial.

E. coli = test: Isothermal titrative calorimetry (ITC) susceptibility test, power output and CFUs recovered; format: cell-based; conditions: for Exponential increase in energy after injection (ITC thermogram): 10^4 wild-type antibiotic susceptible E. coli, 1 ml Mueller-Hinton broth, injection at 7,200 sec, 14,400 sec total
Protocol: (§2) In general, the susceptibility of bacterial strains can be tested by loading the chamber of an isothermal titrative calorimeter with a single bacterial strain, holding a constant temperature of 37° C. for a set time period (e.g., 14,400 seconds (4 hours)) and monitoring the power produced by the bacteria before and after application of an antimicrobial. Following the loading of the calorimeter, there is an initial energy spike within the first 1500 seconds (25 minutes) that is a normal equilibration period for a calorimeter. After the instrument and sample have equilibrated, the energy produced by a normally growing and dividing culture increases in an exponential manner, similar to a log phase growth curve of a microbial culture based on optical density (OD). Like the exponential increase in OD observed for a growing culture, the exponential increase in energy produced also seems to be associated with an increased number of cells in the medium because the number of cells retrieved from the calorimeter following a susceptibility test increases by about 2-3 orders of magnitude. (See Table 1).
In one aspect, the method is practiced by loading into a Isothermal Titrative Calorimetry (ITC) various drugs or antibiotics to which the cells such as microorganisms may be susceptible. The antibiotics can be loaded at different rates and at different growth densities. The difference in power produced by the sample co-cultured with the antibiotics are then measured and compared to the same untreated culture or culture treated with water. The data is differentiated to find the maximum growth rate (dP/dt), and integrated to determine the total microjoules produced by the culture after an antimicrobial was injected. If the organism is resistant to the antibiotic, the maximum growth rate is similar to that when the co-cultured with water. If the microorganism is sensitive to the antibiotic, maximum dP/dt and total microjoule (μJ) for the antimicrobial treated sample are much lower than the untreated sample or the sample treated with water. […]

K. pneumoniae [2] = test: as above; format: cell-based, Klebsiella pneumoniae; conditions: for Number of microbes (CFUs) in calorimetry chamber after incubation: 10^5 loaded, 4-hour monitoring; for Max dP/dt (100 save) after injection / Total μJ produced after injection: ciprofloxacin susceptible, ampicillin resistant strain
Protocol: as §2
(§3) In one aspect, the method is practiced by loading into a Isothermal Titrative Calorimetry (ITC) various drugs or antibiotics to which the cells such as microorganisms may be susceptible. The antibiotics can be loaded at different rates and at different growth densities. The difference in power produced by the sample co-cultured with the antibiotics are then measured and compared to the same untreated culture or culture treated with water. The data is differentiated to find the maximum growth rate (dP/dt), and integrated to determine the total microjoules produced by the culture after an antimicrobial was injected. If the organism is resistant to the antibiotic, the maximum growth rate is similar to that when the co-cultured with water. If the microorganism is sensitive to the antibiotic, maximum dP/dt and total microjoule (μJ) for the antimicrobial treated sample are much lower than the untreated sample or the sample treated with water. See FIGS. 6 through 9 for exemplary ITC-generated growth data.
(§4) The susceptibility of bacterial strains was tested by loading the chamber of an Isothermal Titrative Calorimeter (Calorimetry Sciences Corporation (CSC) and others are commercially available, see microcal.com/index, last accessed on Dec. 28, 2007) with a single bacterial strain, holding a constant temperature of 37° C. for 14,400 seconds (4 hours) and monitoring the power produced by the bacteria before and after application of an antimicrobial. Following the loading of the calorimeter, there is an initial energy spike within the first 1500 seconds (25 minutes) that is a normal equilibration period for a calorimeter. After the instrument and sample have equilibrated, the energy produced by a normally growing and dividing culture increases in an exponential manner, similar to a log phase growth curve of a microbial culture based on optical density (OD). Like the exponential increase in OD observed for a growing culture, the exponential increase in energy produced also seems to be associated with an increased number of cells in the medium because the number of cells retrieved from the calorimeter following a susceptibility test increases by 2-3 orders of magnitude. (See Table 1). A second spike in heat transfer being produced/absorbed in the calorimeter is associated with injection of either water or an antimicrobial into the injection chamber. This spike can be attributed to the enthalpy associated with dilution of the injected solution into the growth medium. […] If a strain is susceptible, a rise in power is not observed. If the strain is resistant to the agent or antimicrobial, the exponential rise in power is observed.
(§5) […]. H2O, ampicillin, or ciprofloxacin was injected into the chamber at 7,200 sec (2 hours). […]

P. mirabilis [3] = test: as above; format: cell-based, Proteus mirabilis; conditions: for Exponential increase in power (μW) after injection (ITC thermogram): injection at 7,200 sec, 14,400 sec total; for Number of microbes (CFUs) in calorimetry chamber after incubation: 10^5 loaded, 4-hour monitoring; for Max dP/dt (100 save) after injection / Total μJ produced after injection: ciprofloxacin resistant, ampicillin resistant strain
Protocol: as §2, §3, §4
. H2O, ampicillin, or ciprofloxacin was injected into the chamber at 7,200 sec (2 hours). […]

A. baumanii [4] = test: as above; format: cell-based, Acinetobacter baumanii; conditions: for Exponential increase in power (μW) after injection (ITC thermogram): 10^5 A. baumanii, 1 ml Mueller-Hinton broth, injection at 7,200 sec, 14,400 sec total; for Number of microbes (CFUs) in calorimetry chamber after incubation: 10^5 loaded, 4-hour monitoring; for Max dP/dt (100 save) after injection / Total μJ produced after injection: ciprofloxacin resistant, ampicillin resistant strain
Protocol: as §2, §3, §4, §5

A. baumanii [5] = test: Minimum inhibitory concentration (traditional susceptibility testing); format: cell-based; conditions: Acinetobacter baumannii; wild-type ampicillin and ciprofloxacin resistant A. baumanii strain used in ITC
Protocol: as §1

K. pneumoniae [6] = test: as above; format: cell-based; conditions: Klebsiella pneumoniae
Protocol: as §1

[7] = 10^5 P. mirabilis, 1 ml Mueller-Hinton broth

CC(C)(O/N=C(\C(=O)N[C@@H]1C(=O)N2C(C(=O)[O-])=C(C[n+]3ccccc3)CS[C@H]12)c1csc(N)n1)C(=O)O [ceftazidime] gave an MIC (P. mirabilis [1]) of 128 µg/mL (≈ 234 µM).

O=C(O)c1cn(C2CC2)c2cc(N3CCNCC3)c(F)cc2c1=O [Ciprofloxacin, ciprofloxacin] was tested, and the “Exponential increase in energy after injection (ITC thermogram)” value (E. coli) was “exponential increase in energy only continued in the sample injected with H2O”, the “Number of microbes (CFUs) in calorimetry chamber after incubation” value (from here on “Number of microbes (CFUs)”) (E. coli; Ciprofloxacin 2 μg/ml, 10^4 loaded, 4-hour monitoring) was 1.7 × 10^7 CFUs and the “Number of microbes (CFUs)” value (K. pneumoniae [2]; Ciprofloxacin 2 μg/ml) was 3.6 × 10^7 CFUs. The “Max dP/dt (100 save) after injection” value (K. pneumoniae [2]; Ciprofloxacin 2 μg/ml) was 0.003, the “Total μJ produced after injection” value (K. pneumoniae [2]; Ciprofloxacin 2 μg/ml) was 24,676 μJ and the “Rate of exponential increase in power after injection, compared with ampicillin or H2O” value (P. mirabilis [3]; 10^5 P. mirabilis, 1 ml Mueller-Hinton broth, injection at 7,200 sec) was “lower than for ampicillin or H2O”. For the same compound, the “Exponential increase in power (μW) after injection (ITC thermogram)” value (from here on “Exponential increase in power (μW)”) (P. mirabilis [3]; [7]) was “exponential increase in power continued in all three samples”, the “Number of microbes (CFUs)” value (P. mirabilis [3]; Ciprofloxacin 2 μg/ml) was 4.1 × 10^6 CFUs and the “Max dP/dt (100 save) after injection” value (P. mirabilis [3]; Ciprofloxacin 2 μg/ml) was 0.012. The “Total μJ produced after injection” value (P. mirabilis [3]; Ciprofloxacin 2 μg/ml) was 79,439 μJ, the “Exponential increase in power (μW)” value (A. baumanii [4]) was “exponential increase in power continued in all three samples” and the “Number of microbes (CFUs)” value (A. baumanii [4]; Ciprofloxacin 2 μg/ml) was 2.1 × 10^7 CFUs. The “Max dP/dt (100 save) after injection” value (A. baumanii [4]; Ciprofloxacin 2 μg/ml) was 0.027, the “Total μJ produced after injection” value (A. baumanii [4]; Ciprofloxacin 2 μg/ml) was 100,846 μJ and the MIC (A. baumanii [5]) was over 32 µg/mL. It also gave an MIC (P. mirabilis [1]; ampicillin resistant, weakly ciprofloxacin resistant P. mirabilis strain used in ITC, read-out: MIC) of 4 µg/mL (≈ 12.1 µM).

In the case of CC1(C)S[C@@H]2[C@H](NC(=O)[C@H](N)c3ccccc3)C(=O)N2[C@H]1C(=O)O [Ampicillin, ampicillin], the “Exponential increase in energy after injection (ITC thermogram)” value (E. coli) was “exponential increase in energy only continued in the sample injected with H2O”, the “Exponential increase in power (μW)” value (K. pneumoniae [2]; 10^5 K. pneumoniae, 1 ml Mueller-Hinton broth, injection at 7,200 sec, 14,400 sec total) was “exponential increase in power continued in the sample injected with H2O and ampicillin” and the “Number of microbes (CFUs)” value (K. pneumoniae [2]; Ampicillin 40 μg/ml) was 2.0 × 10^7 CFUs. The “Max dP/dt (100 save) after injection” value (K. pneumoniae [2]; Ampicillin 40 μg/ml) was 0.029, the “Total μJ produced after injection” value (K. pneumoniae [2]; Ampicillin 40 μg/ml) was 139,108 μJ and the “Exponential increase in power (μW)” value (P. mirabilis [3]; [7]) was “exponential increase in power continued in all three samples”. The “Number of microbes (CFUs)” value (P. mirabilis [3]; Ampicillin 40 μg/ml) was 9.0 × 10^5 CFUs, the “Max dP/dt (100 save) after injection” value (P. mirabilis [3]; Ampicillin 40 μg/ml) was 0.027 and the “Total μJ produced after injection” value (P. mirabilis [3]; Ampicillin 40 μg/ml) was 161,844 μJ. For the same compound, the “Exponential increase in power (μW)” value (A. baumanii [4]) was “exponential increase in power continued in all three samples”, the “Number of microbes (CFUs)” value (A. baumanii [4]; Ampicillin 40 μg/ml) was 3.0 × 10^7 CFUs and the “Max dP/dt (100 save) after injection” value (A. baumanii [4]; Ampicillin 40 μg/ml) was 0.026. The “Total μJ produced after injection” value (A. baumanii [4]; Ampicillin 40 μg/ml) was 91,240 μJ, the MIC (K. pneumoniae [6]) was over 1020 µg/mL and the MIC (P. mirabilis [1]) was over 1020 µg/mL.
